The values below come from patent EP1352977A2, “Novel Desulfitobacterium strain for the degradation of chloroalkenes” (UNIVERSITEIT GENT, priority 2002, dated 2003).

For orientation: inhibition means the share of the control response that was lost under treatment.

Holding throughout (format): cell-based, Desulfitobacterium dichloroeliminans strain DCA1
Data set [1] concerns Desulfitobacterium strain DCA1. The experiment in a line: Substrate range determination: growth on and dechlorination product from chlorinated substrates.
Data set [2] has as its system Desulfitobacterium strain DCA1. The experiment in a line: Growth of strain DCA1 on other electron acceptors. Particulars: for growth in the presence of electron acceptor: 3mM, electron donors lactate and H2.
Data set [3] has as its system Desulfitobacterium strain DCA1. Kind of data set: Inhibition of 1,2-DCA dechlorination / toxicity to strain DCA1.

Entries after “also recorded” stand apart in the source; their conditions may differ. Bounds are passed on as bounds.

In the case of `OCC(Cl)CCl` (stereo not drawn) [2,3-DC-propanol], in data set [1], the “dechlorination reaction” value is listed as “no dechlorination reaction was observed”.
Same read-out and setting: next, `Cl[C@H]1[C@H](Cl)[C@@H](Cl)[C@@H](Cl)[C@H](Cl)[C@H]1Cl` [lindane]: “no dechlorination reaction was observed”.
As for `O=[N+]([O-])O` [NO3^-], the “growth in the presence of electron acceptor” value (“growth in the presence” for short) in data set [2] is “grew”.
As to `O=S(=O)(O)O` [SO4^2-], the “conversion as electron acceptors” value in data set [2] is reported as “not converted”.
Consider `O=NO` [NO2^-], for which the “inhibition of the dechlorination” value in data set [3] (2.5 mM) is listed as “fully inhibited”. The “conversion as electron acceptors” value in data set [2] is listed as “not converted”.
Consider `CC(Cl)CCl` (stereo not drawn) [1,2-dichloropropane], for which the “growth of strain DCA1” value in data set [1] was “sustained growth”.
Regarding `O=C(O)/C=C/C(=O)O` [Fumarate], the “toxicity to strain DCA1” value in data set [3] was “not toxic”. Further, in data set [2], the “conversion as electron acceptors” value is “not converted”.
Regarding `ClC(Cl)Cl` [Chloroform, reference compound], in data set [3] (Desulfitobacterium dichloroeliminans, DCA1, read-out: inhibition of the dechlorination of 1,2-DCA), the inhibition at 50 µM is below 50%.
Take `ClCC(Cl)Cl` [1,1,2-TCA, 1,1,2-trichloroethane]: the “growth of strain DCA1” value in data set [1] is on record as “sustained growth; also recorded: supported growth”.
For the molecule `CC(Cl)C(C)Cl` [L-2,3-DCB, L-2,3-dichlorobutane], the “growth of strain DCA1” value in data set [1] is recorded as “sustained growth”.
Take `O=C(O)[C@@H](Br)[C@@H](Br)C(=O)O` [meso-2,3-dibromosuccinate]: the “dechlorination reaction” value in data set [1] is on record as “no dechlorination reaction was observed”.
In the case of `CC(Cl)C(C)Cl` [D-2,3-DCB, D-2,3-dichlorobutane], in data set [1], the “growth of strain DCA1” value is reported as “sustained growth”.
Turning to `O=S(O)(O)=S` [S2O3^2-], the “growth in the presence” value in data set [2] is given as “grew”.
Regarding `C[C@H](Cl)[C@@H](C)Cl` [meso-2,3-DCB, meso-2,3-dichlorobutane], the “growth of strain DCA1” value in data set [1] was “sustained growth”.
With `O=S(O)O` [SO3^2-], the “growth in the presence” value in data set [2] is listed as “grew”.
In the case of `O=O` [O2], the “conversion as electron acceptors” value in data set [2] is recorded as “not converted”.
On to `ClCC(Cl)CCl` [1,2,3-trichloropropane], for which the “dechlorination reaction” value in data set [1] is given as “no dechlorination reaction was observed”.
With `CCC(Cl)CCl` (stereo not drawn) [1,2-DCB, 1,2-dichlorobutane], in data set [1], the “growth of strain DCA1” value is “sustained growth”.
As for `CCCI` [Propyliodide, reference compound], the “inhibition of the dechlorination” value in data set [3] (50 µM, in the dark, light reversible) was “fully inhibited”.
